Test results as given in patent publication US20250353873A1, “COMPOUNDS AND METHODS FOR MODULATING APOE EXPRESSION” (Ionis Pharmaceuticals, Inc., priority 2024, published 2025).
Strand notation (5' to 3'): a small letter for the sugar, then the base; units joined by * are phosphorothioate-linked, units joined directly phosphodiester-linked; [ ] holds rarer units or linkages, { } end groups; capitals alone tell only the bases. [ms] = mesyl phosphoramidate linkage; e = 2'-O-(2-methoxyethyl) (MOE); k = constrained ethyl (cEt); [5mC] = 5-methylcytosine; d = 2'-deoxy (DNA)

How the values were obtained:
[1] = tested on: human APOE RNA; assay: Activity in APOE C57BL/6NTac-Apoeem7250 knock-in mice, single ICV bolus, 8 weeks (Example 11); type: in vivo; conditions: single ICV bolus 300 μg, 8 weeks post treatment, normalized to mouse Ppia
Method: (§1) Modified oligonucleotides described above were tested in the APOE C57BL/6NTac-Apoeem7250 knock-in mouse model described above.
Each mouse received a single ICV bolus of 300 μg of modified oligonucleotide. A group of 3-4 mice received a single ICV bolus with PBS as a negative control.
(§2) Eight weeks post treatment, mice were sacrificed and RNA was extracted from cortical brain tissue and spinal cord for quantitative real-time RT-PCR analysis of RNA expression of APOE using human primer probe set RTS3073 (described herein above). APOE RNA levels were normalized to mouse Ppia. Mouse Ppia was amplified using primer probe set m_cyclo24 (described herein above). Results are presented as percent human APOE RNA relative to the amount of human APOE RNA in PBS treated animals, (% control). Each experiment is identified in separate tables below.

[2] = tested on: human APOE RNA; assay: Activity in APOE C57BL/6NTac-Apoeem7250 knock-in mice, single ICV bolus, 16 weeks (Example 12); type: in vivo; conditions: single ICV bolus 300 μg, 16 weeks post treatment, normalized to mouse Ppia
Method: as §1
APOE C57BL/6NTac-Apoeem7250 knock-in mice were divided into groups of 3-4 mice each. Each mouse received a single intracerebroventricular (ICV) bolus of 300 μg of modified oligonucleotide. A group of 4 mice received a single ICV bolus with PBS as a negative control.
as §2, with “Sixteen” for “Eight”, “using” for “using human”

## 1810065: mixed MOE/cEt gapmer CTTGGTGAATCTTTATTAAAC, sugar eeeeekddddddddddeeeee, linkages ssoosszzzssssszsooss (listed as DNA, chemistry not fully specified) [compound 1810065]
[1]
  APOE RNA (% control) Cortex: 29 % control
  APOE RNA (% control) Spinal Cord: 21 % control

## 1809741: mixed MOE/cEt gapmer CTTGGTGAATCTTTATTAAAC, sugar eeeeekddddddddddeeeee, linkages ssoooszzsssssszsooss (e[5mC]*eT*eTeGeGkT*dG[ms]dA[ms]dA*dT*d[5mC]*dT*dT*dT*dA[ms]dT*eTeAeA*eA*e[5mC]) [compound 1809741]
[1]
  APOE RNA (% control) Cortex: 33 % control
  APOE RNA (% control) Spinal Cord: 28 % control

## 1652916: 5-10-5 MOE gapmer GGTGAATCTTTATTAAACTA, linkages soooszzzsssssszooss (antisense eG*eGeTeGeA*dA[ms]dT[ms]d[5mC][ms]dT*dT*dT*dA*dT*dT*dA[ms]eAeAe[5mC]*eT*eA) [compound 1652916]
[1]
  APOE RNA (% control) Cortex: 128 % control
  APOE RNA (% control) Spinal Cord: 49 % control

## 1809690: mixed MOE/cEt gapmer CTTGGTGAATCTTTATTAA, sugar eeeekddddddddddkkek, linkages sosssszzzssssszoss (e[5mC]*eTeT*eG*kG*dT*dG[ms]dA[ms]dA[ms]dT*d[5mC]*dT*dT*dT*dA[ms]kTkT*eA*kA) [compound 1809690]
[1]
  APOE RNA (% control) Cortex: 26 % control
  APOE RNA (% control) Spinal Cord: 24 % control

## 1809744: mixed MOE/cEt gapmer CTTGGTGAATCTTTATTAAAC, sugar eeeekkddddddddddeeeee, linkages zsoooszzsssssszsoosz (e[5mC][ms]eT*eTeGkGkT*dG[ms]dA[ms]dA*dT*d[5mC]*dT*dT*dT*dA[ms]dT*eTeAeA*eA[ms]e[5mC]) [compound 1809744]
[1]
  APOE RNA (% control) Cortex: 19 % control
  APOE RNA (% control) Spinal Cord: 11 % control

## 1693058: 5-10-5 MOE gapmer TTGGTGAATCTTTATTAAAC, linkages sssoszzzssssszsosss (antisense eT*eT*eG*eGeT*dG[ms]dA[ms]dA[ms]dT*d[5mC]*dT*dT*dT*dA[ms]dT*eTeA*eA*eA*e[5mC]) [compound 1693058]
[2]
  APOE RNA (% control) Cortex: 113 % control
  APOE RNA (% control) Spinal Cord: 80 % control

## 1693053: 5-10-5 MOE gapmer TTGGTGAATCTTTATTAAAC, linkages ssssszzzsssssssosss (antisense eT*eT*eG*eG*eT*dG[ms]dA[ms]dA[ms]dT*d[5mC]*dT*dT*dT*dA*dT*eTeA*eA*eA*e[5mC]) [compound 1693053]
[2]
  APOE RNA (% control) Cortex: 99 % control
  APOE RNA (% control) Spinal Cord: 99 % control

## 1693077: 6-10-4 MOE gapmer TTGGTGAATCTTTATTAAAC, linkages sosssszzszssszssoss (eT*eTeG*eG*eT*eG*dA[ms]dA[ms]dT*d[5mC][ms]dT*dT*dT*dA[ms]dT*dT*eAeA*eA*e[5mC]) [compound 1693077]
[2]
  APOE RNA (% control) Cortex: 98 % control
  APOE RNA (% control) Spinal Cord: 76 % control

## 1693110: 6-10-4 MOE gapmer CTTGGTGAATCTTTATTAAA, linkages sssssszzzsssszzssss (e[5mC]*eT*eT*eG*eG*eT*dG[ms]dA[ms]dA[ms]dT*d[5mC]*dT*dT*dT[ms]dA[ms]dT*eT*eA*eA*eA) [compound 1693110]
[2]
  APOE RNA (% control) Cortex: 113 % control
  APOE RNA (% control) Spinal Cord: 92 % control

## 1693106: 6-10-4 MOE gapmer CTTGGTGAATCTTTATTAAA, linkages sssssszzzssssszssss (e[5mC]*eT*eT*eG*eG*eT*dG[ms]dA[ms]dA[ms]dT*d[5mC]*dT*dT*dT*dA[ms]dT*eT*eA*eA*eA) [compound 1693106]
[2]
  APOE RNA (% control) Cortex: 78 % control
  APOE RNA (% control) Spinal Cord: 71 % control

## 1693060: 5-10-5 MOE gapmer TTGGTGAATCTTTATTAAAC, linkages ssssszzzsssszzsosss (antisense eT*eT*eG*eG*eT*dG[ms]dA[ms]dA[ms]dT*d[5mC]*dT*dT*dT[ms]dA[ms]dT*eTeA*eA*eA*e[5mC]) [compound 1693060]
[2]
  APOE RNA (% control) Cortex: 93 % control
  APOE RNA (% control) Spinal Cord: 93 % control

## 1693073: 5-10-5 MOE gapmer ACTTGGTGAATCTTTATTAA, linkages sssossszzzzzsssssss (eA*e[5mC]*eT*eTeG*dG*dT*dG[ms]dA[ms]dA[ms]dT[ms]d[5mC][ms]dT*dT*dT*eA*eT*eT*eA*eA) [compound 1693073]
[2]
  APOE RNA (% control) Cortex: 107 % control
  APOE RNA (% control) Spinal Cord: 52 % control

## 1693080: 6-10-4 MOE gapmer TTGGTGAATCTTTATTAAAC, linkages ssssoszzszssszssoss (eT*eT*eG*eG*eTeG*dA[ms]dA[ms]dT*d[5mC][ms]dT*dT*dT*dA[ms]dT*dT*eAeA*eA*e[5mC]) [compound 1693080]
[2]
  APOE RNA (% control) Cortex: 99 % control
  APOE RNA (% control) Spinal Cord: 88 % control

## 1693046: 5-10-5 MOE gapmer CTTGGTGAATCTTTATTAAA, linkages ssssszzzzzsssssssss (antisense e[5mC]*eT*eT*eG*eG*dT[ms]dG[ms]dA[ms]dA[ms]dT[ms]d[5mC]*dT*dT*dT*dA*eT*eT*eA*eA*eA) [compound 1693046]
[2]
  APOE RNA (% control) Cortex: 106 % control
  APOE RNA (% control) Spinal Cord: 80 % control

## 1693100: 6-10-4 MOE gapmer CTTGGTGAATCTTTATTAAA, linkages sssssszzzssssszsoss (e[5mC]*eT*eT*eG*eG*eT*dG[ms]dA[ms]dA[ms]dT*d[5mC]*dT*dT*dT*dA[ms]dT*eTeA*eA*eA) [compound 1693100]
[2]
  APOE RNA (% control) Cortex: 87 % control
  APOE RNA (% control) Spinal Cord: 51 % control

## 1693061: 5-10-5 MOE gapmer TTGGTGAATCTTTATTAAAC, linkages sssoszzzsssszzsssss (antisense eT*eT*eG*eGeT*dG[ms]dA[ms]dA[ms]dT*d[5mC]*dT*dT*dT[ms]dA[ms]dT*eT*eA*eA*eA*e[5mC]) [compound 1693061]
[2]
  APOE RNA (% control) Cortex: 91 % control
  APOE RNA (% control) Spinal Cord: 99 % control

## 1693075: 5-10-5 MOE gapmer ACTTGGTGAATCTTTATTAA, linkages ssssssszzzzzsssssss (eA*e[5mC]*eT*eT*eG*dG*dT*dG[ms]dA[ms]dA[ms]dT[ms]d[5mC][ms]dT*dT*dT*eA*eT*eT*eA*eA) [compound 1693075]
[2]
  APOE RNA (% control) Cortex: 87 % control
  APOE RNA (% control) Spinal Cord: 64 % control

## 1693139: 6-10-4 MOE gapmer ACTTGGTGAATCTTTATTAA, linkages ssssssszzzssssszsss (eA*e[5mC]*eT*eT*eG*eG*dT*dG[ms]dA[ms]dA[ms]dT*d[5mC]*dT*dT*dT*dA[ms]eT*eT*eA*eA) [compound 1693139]
[2]
  APOE RNA (% control) Cortex: 92 % control
  APOE RNA (% control) Spinal Cord: 97 % control

## 1693140: 6-10-4 MOE gapmer ACTTGGTGAATCTTTATTAA, linkages sssssoszzzssssszoss (eA*e[5mC]*eT*eT*eG*eGdT*dG[ms]dA[ms]dA[ms]dT*d[5mC]*dT*dT*dT*dA[ms]eTeT*eA*eA) [compound 1693140]
[2]
  APOE RNA (% control) Cortex: 109 % control
  APOE RNA (% control) Spinal Cord: 68 % control

## 1693068: 5-10-5 MOE gapmer ACTTGGTGAATCTTTATTAA, linkages sssossszzzszsssssss (antisense eA*e[5mC]*eT*eTeG*dG*dT*dG[ms]dA[ms]dA[ms]dT*d[5mC][ms]dT*dT*dT*eA*eT*eT*eA*eA) [compound 1693068]
[2]
  APOE RNA (% control) Cortex: 86 % control
  APOE RNA (% control) Spinal Cord: 72 % control

## 1693070: 5-10-5 MOE gapmer ACTTGGTGAATCTTTATTAA, linkages ssssssszzzszsssosss (antisense eA*e[5mC]*eT*eT*eG*dG*dT*dG[ms]dA[ms]dA[ms]dT*d[5mC][ms]dT*dT*dT*eAeT*eT*eA*eA) [compound 1693070]
[2]
  APOE RNA (% control) Cortex: 86 % control
  APOE RNA (% control) Spinal Cord: 76 % control

## 1693081: 6-10-4 MOE gapmer TTGGTGAATCTTTATTAAAC, linkages sssssozzszssszssoss (eT*eT*eG*eG*eT*eGdA[ms]dA[ms]dT*d[5mC][ms]dT*dT*dT*dA[ms]dT*dT*eAeA*eA*e[5mC]) [compound 1693081]
[2]
  APOE RNA (% control) Cortex: 91 % control
  APOE RNA (% control) Spinal Cord: 100 % control

## 1693065: 5-10-5 MOE gapmer ACTTGGTGAATCTTTATTAA, linkages soossssszzsssssssss (antisense eA*e[5mC]eTeT*eG*dG*dT*dG*dA[ms]dA[ms]dT*d[5mC]*dT*dT*dT*eA*eT*eT*eA*eA) [compound 1693065]
[2]
  APOE RNA (% control) Cortex: 82 % control
  APOE RNA (% control) Spinal Cord: 46 % control

## 1693078: 6-10-4 MOE gapmer TTGGTGAATCTTTATTAAAC, linkages ssossszzszssszssoss (eT*eT*eGeG*eT*eG*dA[ms]dA[ms]dT*d[5mC][ms]dT*dT*dT*dA[ms]dT*dT*eAeA*eA*e[5mC]) [compound 1693078]
[2]
  APOE RNA (% control) Cortex: 98 % control
  APOE RNA (% control) Spinal Cord: 99 % control
